Experimental findings from patent EP4778933A1 (Chengdu Hyperway Pharmaceuticals Co., Ltd., priority 2023, dated 2025) are described below.

The subject of one assay is KRAS G12D-mediated ERK phosphorylation. The experiment in a line: Inhibition of KRAS G12D-mediated ERK phosphorylation in AGS cells (in-cell pERK/GAPDH immunofluorescence). The conditions noted are these: AGS cells, 3 h incubation. The assay is classed as cell-based. On the procedure: Day 1: AGS cells, SW480 cells, NCI H358 cells, HCT116 cells, and KP2 cells were seeded into 384-well cell culture plates and cultured overnight in a 37°C, 5% CO2 incubator.
Day 2: The compounds were added to the plates using Echo550 and incubated for 3 h in a 37°C, 5% CO2 incubator. Then, cells fixed with paraformaldehyde, permeated with methanol and blocked with a blocking solution were added. Finally, a mixed solution of primary antibodies (rabbit anti pERK, mouse anti GAPDH) was added, and the mixture was incubated overnight at 4°C.
Day 3: The mixed solution of primary antibodies was discarded, and a mixed solution of secondary antibodies (goat anti rabbit 800 CW, goat anti mouse 680 RD) was added. The resulting mixture was incubated at room temperature in the dark. Finally, the cell culture plate was washed with PBST, and then inverted for 1 minute of centrifugation. The fluorescence signal values were read with Odyssey CLx.
ERK phosphorylation was calculated according to the following formula: [formula] • Negative control: DMSO • Positive control: 10 µM Reference • IC50 value was fitted and calculated by XLFit 5.0 using the parametric formula. • Y = Bottom+(Top-Bottom)/(1+10^((LogIC50-X)*HillSlope)) • X: log value of compound concentration. • Y: average value of relative expression of p-ERK between replicate wells.
What is called IC50 is the concentration that gives 50% inhibition. The compound `CC1(O)COCCN(c2nc(OCC34CCCN3C(c3cc(F)c(F)c(F)c3)CC4)nc3c(F)c(-c4cccc5sc(N)c(C#N)c45)c(Br)cc23)C1` (single isomer, unassigned) [Example 27, 2-amino-4-[6-bromo-8-fluoro-4-(6-hydroxy-6-methyl-1,4-oxazepan-4-yl)-2-({[3-(3,4,5-trifluoropheny 1)-2,3,5,6,7,7a-hexahydro-1H-pyrrolizin-7a-yl]methyl}oxy)quinazolin-7-yl]benzo[b]thiophene-3-carb onitrile] displayed an IC50 of 355 nM.
The same measure, in the same setting: as for `CC1(O)COCCN(c2nc(OCC34CCCN3C(c3cc(F)c(F)c(F)c3)CC4)nc3c(F)c(-c4cccc5sc(N)c(C#N)c45)c(Br)cc23)C1` (single isomer, unassigned) [Example 25, 2-amino-4-[6-bromo-8-fluoro-4-(6-hydroxy-6-methyl-1,4-oxazepan-4-yl)-2-({[3-(3,4,5-trifluoropheny 1)-2,3,5,6,7,7a-hexahydro-1H-pyrrolizin-7a-yl]methyl}oxy)quinazolin-7-yl]benzo[b]thiophene-3-carb onitrile], the figure is above 1000 nM.
Same read-out and setting: in the case of `CC1(O)COCCN(c2nc(OCC34CCCN3C(c3cc(F)c(F)c(F)c3)CC4)nc3c(F)c(-c4cccc5sc(N)c(C#N)c45)c(Br)cc23)C1` (single isomer, unassigned) [Example 24, 2-amino-4-[6-bromo-8-fluoro-4-(6-hydroxy-6-methyl-1,4-oxazepan-4-yl)-2-({[3-(3,4,5-trifluoropheny 1)-2,3,5,6,7,7a-hexahydro-1H-pyrrolizin-7a-yl]methyl}oxy)quinazolin-7-yl]benzo[b]thiophene-3-carb onitrile] it was 106 nM.

The assay is the same for the next values; noted with them: AGS cells, 3 h incubation; read-out: Inhibitory activity on ERK phosphorylation (IC50) AGS-G12D.
Turning to `CC1(O)COCCN(c2nc(OCC34CCCN3C(c3cc(F)c(F)c(F)c3)CC4)nc3c(F)c(-c4cccc5sc(N)c(C#N)c45)c(Cl)cc23)C1` (single isomer, unassigned) [Example 20, 2-amino-4-[6-chloro-8-fluoro-4-(6-hydroxy-6-methyl-1,4-oxazepan-4-yl)-2-({[3-(3,4,5-trifluorophenyl)-2,3,5,6,7,7a-hexahydro-1H-pyrrolizin-7a-yl]methyl}oxy)quinazolin-7-yl]benzo[b]thiophene-3-carbonitrile], the IC50 was above 1000 nM.
In the case of `CC1(O)COCCN(c2nc(OCC34CCCN3C(c3cc(F)c(F)c(F)c3)CC4)nc3c(F)c(-c4cccc5sc(N)c(C#N)c45)c(Cl)cc23)C1` (single isomer, unassigned) [Example 22, 2-amino-4-[6-chloro-8-fluoro-4-(6-hydroxy-6-methyl-1,4-oxazepan-4-yl)-2-({[3-(3,4,5-trifluorophenyl)-2,3,5,6,7,7a-hexahydro-1H-pyrrolizin-7a-yl]methyl}oxy)quinazolin-7-yl]benzo[b]thiophene-3-carbonitrile], the IC50 came to 43 nM.
Still for that read-out and setting: in the case of `CC1(O)COCCN(c2nc(OCC34CCCN3C(c3cc(F)c(F)c(F)c3)CC4)nc3c(F)c(-c4cccc5sc(N)c(C#N)c45)c(I)cc23)C1` (single isomer, unassigned) [Example 32, 2-amino-4-[6-iodo-8-fluoro-4-(6-hydroxy-6-methyl-1,4-oxazepan-4-yl)-2-({[3-(3,4,5-trifluorophenyl)-2,3,5,6,7,7a-hexahydro-1H-pyrrolizin-7a-yl]methyl}oxy)quinazolin-7-yl]benzo[b]thiophene-3-carbonitrile] it was 24 nM; in that of `CC1(O)COCCN(c2nc(OCC34CCCN3C(c3cc(F)c(F)c(F)c3)CC4)nc3c(F)c(-c4cccc5sc(N)c(C#N)c45)c(I)cc23)C1` (single isomer, unassigned) [Example 30, 2-amino-4-[6-iodo-8-fluoro-4-(6-hydroxy-6-methyl-1,4-oxazepan-4-yl)-2-({[3-(3,4,5-trifluorophenyl)-2,3,5,6,7,7a-hexahydro-1H-pyrrolizin-7a-yl]methyl}oxy)quinazolin-7-yl]benzo[b]thiophene-3-carbonitrile], 94 nM.

The same assay, now with this note: Homo sapiens, AGS, 3 h, AGS cells, 3 h incubation; read-out: Inhibitory activity on ERK phosphorylation (IC50) AGS-G12D.
Turning to `CC1(O)CCCN(c2nc(OCC34CCCN3C(c3cc(F)c(F)c(F)c3)CC4)nc3c(F)c(-c4ccc(F)c5sc(N)c(C#N)c45)c(Cl)cc23)CC1` (racemic) [Example 6, 2-amino-4-[6-chloro-8-fluoro-4-(4-hydroxy-4-methylazepan-1-yl)-2-({[3-(3,4,5-trifluorophenyl)-2,3,5,6,7,7a-hexahydro-1H-pyrrolizin-7a-yl]methyl}oxy)quinazolin-7-yl]-7-fluorobenzo[b]thioph ene-3-carbonitrile], the IC50 was 787 nM.
Consider `N#Cc1c(N)sc2cccc(-c3c(Cl)cc4c(N5CCNOCC5)nc(OCC56CCCN5C(c5cc(F)c(F)c(F)c5)CC6)nc4c3F)c12` (single isomer, unassigned) [Example 34, 2-amino-4-[6-chloro-8-fluoro-4-(1,2,5-oxadiazepan-5-yl)-2-({[3-(3,4,5-trifluorophenyl)-2,3,5,6,7,7a-hexahydro-1H-pyrrolizin-7a-yl]methyl}oxy)quinazolin-7-yl]benzo[b]thiophene-3-carbonitrile], for which the IC50 was 67 nM.
On the same count and under the same terms, in the case of `CC1=NOC2(CCCN(c3nc(OCC45CCCN4C(c4cc(F)c(F)c(F)c4)CC5)nc4c(F)c(-c5ccc(F)c6sc(N)c(C#N)c56)c(Cl)cc34)CC2)C1` (racemic) [Example 3, 2-amino-4-[6-chloro-8-fluoro-4-(3-methyl-2,8-diaza-1-oxaspiro[4.6]undec-2-en-8-yl)-2-({[3-(3,4,5-trifluorophenyl)-2,3,5,6,7,7a-hexahydro-1H-pyrrolizin-7a-yl]methyl}oxy)quinazolin-7-yl]-7-fl uorobenzo[b]thiophene-3-carbonitrile] it was above 1000 nM; in that of `CN(C)C(=O)C1CN(c2nc(OCC34CCCN3C(c3cc(F)c(F)c(F)c3)CC4)nc3c(F)c(-c4ccc(F)c5sc(N)c(C#N)c45)c(Cl)cc23)CCCO1` (racemic) [Example 16, 4-[7-(2-amino-3-cyano-7-fluorobenzo[b]thiophen-4-yl)-6-chloro-8-fluoro-2-({[3-(3,4,5-trifluorophenyl)-2,3,5,6,7,7a-hexahydro-1H-pyrrolizin-7a-yl]methyl}oxy)quinazolin-4-yl]-N,N-dimethyl-1,4-oxazepan-2-carboxamide], 380 nM.
The same measure, in the same setting: in the case of `COC1CCN(c2nc(OCC34CCCN3C(c3cc(F)c(F)c(F)c3)CC4)nc3c(F)c(-c4ccc(F)c5sc(N)c(C#N)c45)c(N)cc23)C1` (racemic) [Example 15, 2-amino-4-[6-amino-8-fluoro-4-(3-methoxytetrahydro-1H-pyrrol-1-yl)-2-({[3-(3,4,5-trifluor ophenyl)-2,3,5,6,7,7a-hexahydro-1H-pyrrolizin-7a-yl]methyl}oxy)quinazolin-7-yl]-7-fluorobenzo[b]t hiophene-3-carbonitrile] it was above 1000 nM.
The same measure, in the same setting: in the case of `N#Cc1c(N)sc2c(F)ccc(-c3c(Cl)cc4c(N5CCOCC(O)(CO)C5)nc(OCC56CCCN5C(c5cc(F)c(F)c(F)c5)CC6)nc4c3F)c12` (racemic) [Example 2, 2-amino-4-{6-chloro-8-fluoro-4-[6-hydroxy-6-(hydroxymethyl)-1,4-oxazepan-4-yl]-2-({[3-(3,4,5-trifluorophenyl)-2,3,5,6,7,7a-hexahydro-1H-pyrrolizin-7a-yl]methyl}oxy)quinazolin-7-yl}-7-flu orobenzo[b]thiophene-3-carbonitrile] it was above 1000 nM.

Staying with this assay, now noted: Homo sapiens, AGS, 3 h, read-out: Inhibitory activity on ERK phosphorylation (IC50) AGS-G12D, AGS cells, 3 h incubation.
`CC1(O)COCCN(c2nc(OCC34CCCN3C(c3cc(F)c(F)c(F)c3)CC4)nc3c(F)c(-c4cccc5sc(N)c(C#N)c45)c(P(C)(C)=O)cc23)C1` (single isomer, unassigned) [Example 33, 2-amino-4-{6-[dimethyl(oxo)-15-methylphosphino]-8-fluoro-4-(6-hydroxy-6-methyl-1,4-oxazepan-4-yl)-2-({[3-(3,4,5-trifluorophenyl)-2,3,5,6,7,7a-hexahydro-1H-pyrrolizin-7a-yl]methyl}oxy)quinazolin-7-yl}benzo[b]thiophene-3-carbonitrile]: the IC50 was 196 nM.
The same measure, in the same setting: in the case of `CC1(O)COCCN(c2nc(OCC34CCCN3C(c3cc(F)c(F)c(F)c3)CC4)nc3c(F)c(-c4cncc5sc(N)c(C#N)c45)c(Cl)cc23)C1` (single isomer, unassigned) [Example 37, 2-amino-4-[6-chloro-8-fluoro-4-(6-hydroxy-6-methyl-1,4-oxazepan-4-yl)-2-({[1-(3,4,5-trifluoropheny 1)octahydrocyclopenta[1,2-a][5]annulen-3a-yl]methyl}oxy)quinazolin-7-yl]thieno[2,3-c]pyridine-3-ca rbonitrile] it was 193 nM.

The same assay, now with this note: Homo sapiens; AGS cells, 3 h incubation; read-out: Inhibitory activity on ERK phosphorylation (IC50) AGS-G12D.
As to `N#Cc1c(N)sc2c(F)ccc(-c3c(Cl)cc4c(N5CC6C[C@@H](C5)c5cccc(=O)n5C6)nc(OCC56CCCN5C(c5cc(F)c(F)c(F)c5)CC6)nc4c3F)c12` (mixture of isomers) [Example 7, 2-amino-4-{6-chloro-8-fluoro-4-[(1S)-6-oxo-7,11-diazatricyclo[7.3.1.02,7]trideca-2(3),4-dien-11-yl]-2-({[3-(3,4,5-trifluorophenyl)-2,3,5,6,7,7a-hexahydro-1H-pyrrolizin-7a-yl]methyl}oxy)quinazolin-7-yl}-7-fluorobenzo[b]thiophene-3-carbonitrile], the IC50 is 738 nM.
